Measured values: ChEMBL document CHEMBL5674860, “Optimized Dual-Glo Assay to identify co-culture-induced drug vulnerabilities in 3D CRC models” (2024)

Key:
Type in all cases: functional, Homo sapiens
Set-up in all cases: dose or concentration left out as unconfirmed
Colon cancer organoid [1] = assay: Optimized Dual-Glo assay to identify co-culture induced drug vulnerabilities using donated chemical probes and chemogenomics kinase set in O06 CRC organoid and F06 CAF mono and co-culture. […] Cell viability is reported both mono and co-culture models.
Colon cancer organoid [2] = assay: Optimized Dual-Glo assay to identify co-culture induced drug vulnerabilities using donated chemical probes and chemogenomics kinase set in O14 CRC organoid and F14 CAF mono and co-culture. […] Cell viability is reported both mono and co-culture models.
Colon cancer organoid [3] = assay: Optimized Dual-Glo assay to identify co-culture induced drug vulnerabilities using donated chemical probes and chemogenomics kinase set in O20 CRC organoid and F20 CAF mono and co-culture. […] Cell viability is reported both mono and co-culture models.
[4] = Culture type Co-Culture, Transduced with Lucferase2-P2A-EGFP lentivirus
[5] = Culture type Co-Culture, Transduced with Renilla-dsRed lentivirus
[6] = Culture type Mono-Culture, Transduced with Lucferase2-P2A-EGFP lentivirus
[7] = Culture type Mono-Culture, Transduced with Renilla-dsRed lentivirus

Row | Structure (SMILES) | Cell Viability (Colon cancer organoid [1]; [4]) | Cell Viability (Colon cancer organoid [1]; [5]) | Cell Viability (Colon cancer organoid [1]; [6]) | Cell Viability (Colon cancer organoid [1]; [7]) | Cell Viability (Colon cancer organoid [2]; [4]) | Cell Viability (Colon cancer organoid [2]; [5]) | Cell Viability (Colon cancer organoid [2]; [6]) | Cell Viability (Colon cancer organoid [2]; [7]) | Cell Viability (Colon cancer organoid [3]; [4]) | Cell Viability (Colon cancer organoid [3]; [5]) | Cell Viability (Colon cancer organoid [3]; [6]) | Cell Viability (Colon cancer organoid [3]; [7])
1 | COc1ccccc1C(=O)Nc1cc2c(cc1N1CCNCC1C)n(C)c(=O)n2C (stereo unspecified) | 112.155% | 138.916% | 92.5462% | 113.336% | 109.979% | 135.305% | 100.033% | 95.8386% | 130.677% | 107.173% | 124.631% | 104.05%
2 | N#CN1CC[C@@H](C(=O)Nc2nc3c(s2)CN(C(=O)CN=[N+]=[N-])CC3)C1 [JYQ88] | 72.1963% | 58.5555% | 71.7367% | 79.6546% | 85.6014% | 100.681% | 114.259% | 88.3695% | 63.8809% | 84.2967% | 72.0417% | 77.9243%
3 | COc1ccc2c(c1)O[C@@H](c1ccc(OC)c(OC)c1)C[C@H]2NC(=O)C1(c2ccc3c(c2)OC(F)(F)O3)CC1 [A-1596586] | 95.9961% | 117.187% | 95.5945% | 101.185% | 96.097% | 118.297% | 94.5524% | 101.637% | 84.3805% | 101.93% | 87.5429% | 80.1817%
4 | O=C(Nc1ccc(-c2ccnc(Nc3ccc(N4CCOCC4)cc3)n2)cc1)[C@@H]1CCCN1 | 100.254% | 96.014% | 101.806% | 108.082% | 127.595% | 79.807% | 135.011% | 98.0054% | 138.223% | 76.0213% | 82.2702% | 101.459%
5 | Clc1cccc(-c2nnnn2Cc2cccnc2)c1Cl | 143.79% | 176.132% | 116.081% | 109.73% | 106.43% | 104.512% | 115.794% | 81.6635% | 106.259% | 101.74% | 98.4532% | 98.284%
6 | Cn1nc(C(F)(F)F)cc1-c1cnc(N2CCc3cc(S(=O)(=O)Nc4c(F)cc(Cl)cc4F)cc(N4CCCC4=O)c32)nc1 [TP-020] | 112.159% | 131.656% | 120.125% | 102.548% | 84.372% | 107.562% | 84.9301% | 79.7114% | 86.7802% | 95.2287% | 142.794% | 105.743%
7 | Cc1nc(C2CCN(C(=O)c3ccc(OC(F)(F)F)cc3N)CC2)c2ncc(N3CCN(C)CC3)cc2n1 [BAY-693] | 114.208% | 166.908% | 75.386% | 110.093% | 86.7565% | 92.2226% | 129.525% | 92.5719% | 93.857% | 129.276% | 111.777% | 88.9169%
8 | Cn1c(=O)[nH]c2cc(N3C(=O)c4cccc5c(CCCO)ccc(c45)C3=O)ccc21 | 115.119% | 110.623% | 83.0583% | 109.161% | 89.1085% | 114.749% | 98.1543% | 99.5703% | 125.633% | 89.8045% | 109.771% | 112.055%
9 | COc1ncc(F)cc1CNc1ccc(Cc2c[nH]c3ncc(C)cc23)c(F)n1 [PLX-5622] | 82.7626% | 63.3822% | 93.414% | 61.0678% | 95.8839% | 46.3569% | 130.226% | 44.2586% | 205.726% | 55.6932% | 133.198% | 66.7491%
10 | CC#CC(=O)N1CCC[C@H]1c1nc(-c2ccc(C(=O)Nc3ccccn3)cc2)c2c(N)nccn12 [ACALABRUTINIB] | 96.562% | 83.4698% | 98.0139% | 99.6421% | 70.2708% | 100.717% | 59.6403% | 100.701% | 96.1769% | 99.9657% | 56.8336% | 71.1135%
11 | CC[C@H](CC(=O)O)n1c(=O)c2ncccc2n(Cc2cn(C)c3cc(C)cc(C)c23)c1=O [BI-1942] | 119.907% | 136.619% | 121.189% | 103.918% | 138.147% | 85.0736% | 117.29% | 91.8874% | 107.514% | 100.799% | 88.7956% | 92.5825%
12 | COc1c(OCCCN2CCOCC2)ccc2c1N=C(NC(=O)c1cnc(N)nc1)N1CCN=C21 [COPANLISIB] | 1.487% | 40.0213% | 1.127% | 24.3347% | 3.879% | 63.1617% | 2.323% | 50.5605% | 2.276% | 117.524% | 0.6907% | 109.388%
13 | COc1ccccc1-c1cc(N2CCN(C(=O)OC(C)(C)C)CC2)c(N)nn1 | 99.4085% | 102.712% | 83.0998% | 116.6% | 99.785% | 110.211% | 110.079% | 98.4172% | 122.85% | 160.936% | 122.916% | 117.085%
14 | CCNC(=O)c1cc2c(-c3cc(C(C)(C)O)ccc3Oc3c(C)cc(F)cc3C)cn(C)c(=O)c2[nH]1 [ABBV-744] | 91.6049% | 287.135% | 45.0108% | 272.327% | 55.2801% | 319.971% | 42.072% | 212.265% | 58.1744% | 215.224% | 60.9117% | 122.12%
15 | CCC(=O)N[C@H]1CC[C@@H](C(=O)N(C)c2ccc(-c3nc4ccccc4o3)cc2)C1 [BI 99179] | 7.905% | 448.988% | 13.2074% | 86.3048% | 36.4327% | 197.223% | 76.5692% | 108.528% | 33.9891% | 149.12% | 57.7768% | 75.3735%
16 | Cc1sc2c(c1C)C(c1ccc(Cl)cc1)=N[C@@H](CC(=O)OC(C)(C)C)c1nnc(C)n1-2 | 24.0633% | 301.325% | 25.9077% | 273.458% | 21.0352% | 390.207% | 21.1376% | 218.603% | 11.0659% | 145.881% | 17.1066% | 37.2064%
17 | O=C(c1ccc(F)c(F)c1Nc1ccc(I)cc1F)N1CC(O)([C@@H]2CCCCN2)C1 [COBIMETINIB] | 5.143% | 42.4292% | 6.053% | 35.0976% | 2.787% | 24.389% | 1.583% | 12.612% | 4.023% | 77.761% | 4.662% | 37.2771%
18 | CC1=C(C#N)C(c2ccc3[nH]nc(C)c3c2)C(C#N)=C(C)N1 [BAY-474] | 148.587% | 192.268% | 98.9453% | 96.2381% | 198.7% | 101.908% | 71.8172% | 85.997% | 81.7867% | 102.241% | 98.8764% | 79.7467%
